Assay results: patent US7964620B2, “Imidazole derivatives” (Hoffmann-La Roche Inc., priority 2003, dated 2011)

Target: T1, human mGlu 5a receptor (Homo sapiens, UniProt P41594)
T1 construct: expressed in transfected cells; host or cells: EBNA cells (transient transfection); cell membrane homogenates
Assay: [3H]MPEP competition binding on membranes of EBNA cells transiently transfected with human mGlu 5a receptor
Details: competition with 2 nM [3H]MPEP, 1 h at 4° C., Ki=IC50/[1+L/Kd]
Protocol: For binding experiments, cDNA encoding human mGlu 5a receptor was transiently trans-fected into EBNA cells using a procedure described by Schlaeger and Christensen [Cyto-technology 15:1-13 (1998)]. Cell membrane homogenates were stored at −80° C. until the day of assay where upon they were thawed and resuspended and polytronized in 15 mM Tris-HCl, 120 mM NaCl, 100 mM KCl, 25 mM CaCl2, 25 mM MgCl2 binding buffer at pH 7.4 to a final assay concentration of 20 μg protein/well.
Saturation isotherms were determined by addition of twelve [^3H]MPEP concentrations (0.04-100 nM) to these membranes (in a total volume of 200 μl) for 1 h at 4° C. Competition experiments were performed with a fixed concentration of [^3H]MPEP (2 nM) and IC50 values of test compounds evaluated using 11 concentrations (0.3-10,000 nM). Incubations were performed for 1 h at 4° C.
At the end of the incubation, membranes were filtered onto unifilter (96-well white microplate with bonded GF/C filter preincubated 1 h in 0.1% PEI in wash buffer, Packard BioScience, Meriden, Conn.) with a Filtermate 96 harvester (Packard BioScience) and washed 3 times with cold 50 mM Tris-HCl, pH 7.4 buffer. Nonspecific binding was measured in the presence of 10 μM MPEP. The radioactivity on the filter was counted (3 min) on a Packard Top-count microplate scintillation counter with quenching correction after addition of 45 μl of microscint 40 (Can berra Packard S. A., Zürich, Switzerland) and shaking for 20 min. For functional assays, [Ca^2+]i measurements were performed as described previously by Porter et al. [Br. J. Pharmacol. 128:13-20 (1999)] on recombinant human mGlu 5a receptors in HEK-293 cells. The cells were dye loaded using Fluo 4-AM (obtainable by FLUKA, 0.2 μM final concentration). [Ca^2+]i measurements were performed using a fluorometric imaging plate reader (FLIPR, Molecular Devices Corporation, La Jolla, Calif., USA). Antagonist evaluation was performed following a 5 min preincubation with the test compounds followed by the addition of a submaximal addition of agonist.
The inhibition (antagonists) curves were fitted with a four parameter logistic equation giving IC50, and Hill coefficient using an iterative non linear curve fitting software (Xcel fit). For binding experiments the Ki values of the compounds tested are given. The Ki value is defined by the following formula: Ki=IC50/[1+L/Kd] in which the IC50 values are those concentrations of the compounds tested which cause 50% inhibition of the competing radioligand ([^3H]MPEP). L is the concentration of radioligand used in the binding experiment and the Kd value of the radioligand is empirically determined for each batch of membranes prepared.

T1 sequence (P41594 21-1180 isoform P41594-2 limits assumed): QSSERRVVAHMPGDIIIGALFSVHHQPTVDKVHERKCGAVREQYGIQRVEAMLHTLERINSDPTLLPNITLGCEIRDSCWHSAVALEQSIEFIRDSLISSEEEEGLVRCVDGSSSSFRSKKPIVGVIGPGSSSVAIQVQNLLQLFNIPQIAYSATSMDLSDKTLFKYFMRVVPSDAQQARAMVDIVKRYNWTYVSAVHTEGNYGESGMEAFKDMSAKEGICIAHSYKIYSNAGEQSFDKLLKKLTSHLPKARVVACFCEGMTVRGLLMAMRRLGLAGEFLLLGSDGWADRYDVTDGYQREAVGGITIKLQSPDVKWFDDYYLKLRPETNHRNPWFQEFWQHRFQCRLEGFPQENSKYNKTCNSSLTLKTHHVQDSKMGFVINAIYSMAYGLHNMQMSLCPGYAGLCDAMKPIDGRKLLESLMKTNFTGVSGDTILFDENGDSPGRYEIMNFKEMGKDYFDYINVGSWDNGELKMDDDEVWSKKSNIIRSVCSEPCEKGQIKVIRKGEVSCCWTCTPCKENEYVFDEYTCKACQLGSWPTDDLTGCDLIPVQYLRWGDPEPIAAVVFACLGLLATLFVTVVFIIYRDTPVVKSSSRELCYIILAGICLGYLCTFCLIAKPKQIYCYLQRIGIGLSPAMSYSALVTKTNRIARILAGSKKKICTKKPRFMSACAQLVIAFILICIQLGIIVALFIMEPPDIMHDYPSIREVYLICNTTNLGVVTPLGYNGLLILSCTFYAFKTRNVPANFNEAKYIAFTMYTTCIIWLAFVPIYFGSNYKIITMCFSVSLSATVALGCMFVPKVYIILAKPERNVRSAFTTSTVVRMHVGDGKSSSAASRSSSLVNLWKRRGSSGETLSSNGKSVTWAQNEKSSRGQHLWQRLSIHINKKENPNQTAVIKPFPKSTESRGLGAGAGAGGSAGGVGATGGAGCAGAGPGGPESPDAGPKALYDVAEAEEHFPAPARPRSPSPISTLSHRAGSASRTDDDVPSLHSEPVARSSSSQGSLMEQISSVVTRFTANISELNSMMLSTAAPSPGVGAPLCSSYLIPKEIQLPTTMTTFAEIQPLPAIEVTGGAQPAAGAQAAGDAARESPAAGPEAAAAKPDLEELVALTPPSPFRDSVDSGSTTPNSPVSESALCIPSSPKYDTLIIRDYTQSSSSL

Compound	Ki
Cc1cc(C#Cc2cn(C(C)c3ccccc3)c(C)n2)ccn1 (racemic) [Example 23, rac-2-Methyl-4-[2-methyl-1-(1-phenyl-ethyl)-1H-imidazol-4-ylethynyl]-pyridine]	77 nM
Cc1nc(C#Cc2cccc(Cl)c2)cn1Cc1ccccn1 [Example 3, 2-[4-(3-Chloro-phenylethynyl)-2-methyl-imidazol-1-ylmethyl]-pyridine]	40 nM
Cc1cc(C#Cc2cn(Cc3cccc(C)n3)c(C)n2)ccn1 [Example 4, 4-[1-(6-Methyl-pyridin-2-ylmethyl)-2-methyl-1H-imidazol-4-ylethynyl]-2-methyl-pyridine]	93 nM
Cc1nc(C#Cc2cccc(C#N)c2)cn1Cc1cncc(Cl)c1 [Example 18, 3-[1-(5-Chloro-pyridin-3-ylmethyl)-2-methyl-1H-imidazol-4-ylethynyl]-benzonitrile]	94 nM
Cc1cc(C#Cc2cn(CCc3ccccc3)c(C)n2)ccn1 [Example 29, 2-Methyl-4-(2-methyl-1-phenethyl-1H-imidazol-4-ylethynyl)-pyridine]	33 nM
